The supplement of paper PMC4862054

Legend:
Conditions in all cases: incubation time: 72 h
DU-4475 [1] = experiment: normalised response (% of control), CellTiter-Glo; higher = more viable cells (100 = DMSO, 0 = benzethonium chloride kill control)
Protocol: (§1)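 DSRT, 72 h incubation, CellTox Green / CellTiter-Glo readout. Signal is normalised to DMSO and benzethonium chloride controls. Value is the normalised response at the highest dose.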

Hs578T [2] = experiment: as above
Protocol: as §1

MDA-MB-436 [3] = experiment: as above
Protocol: as §1

CAL-85-1 [4] = experiment: as above
Protocol: as §1

MDA-MB-468 [5] = experiment: as above
Protocol: as §1

HCC1937 [6] = experiment: as above
Protocol: as §1

HCC1143 [7] = experiment: as above
Protocol: as §1

CAL-148 [8] = experiment: as above
Protocol: as §1

DU-4475 [9] = experiment: normalised response (% of control), CellTox Green; higher = less cell death (100 = DMSO, 0 = benzethonium chloride kill control)
How it was run: (§2)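 Compound was dispensed into 384-well plates at 5 concentrations in 10-fold steps spanning a 10,000-fold range specific to that compound. Breast cancer cell lines were added as 20 µl suspension and left for 72 h before CellTox Green fluorescence (485/520 nm) and then CellTiter-Glo luminescence, read after 10 min at room temperature. Each reported value is the normalised signal at one concentration, with 0.1 % DMSO set at 100 and a positive kill control at 0 on each plate.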

Hs578T [10] = experiment: as above
How it was run: as §2

CAL-120 = experiment: as above
How it was run: as §2

MDA-MB-436 [11] = experiment: as above
How it was run: as §2

HDQ-P1 = experiment: as above
How it was run: as §2

HCC1599 = experiment: as above
How it was run: as §2

BT-549 = experiment: as above
How it was run: as §2

CAL-85-1 [12] = experiment: as above
How it was run: as §2

MDA-MB-468 [13] = experiment: as above
How it was run: as §2

CAL-51 = experiment: as above
How it was run: as §2

MDA-MB-231 = experiment: as above
How it was run: as §2

HCC1937 [14] = experiment: as above
How it was run: as §2

BT-474 = experiment: as above
How it was run: as §2

HCC1143 [15] = experiment: as above
How it was run: as §2

MCF-10A = experiment: as above
How it was run: as §2

MDA-MB-453 = experiment: as above
How it was run: as §2

CAL-148 [16] = experiment: as above
How it was run: as §2

MFM-223 = experiment: as above
How it was run: as §2

Row | Structure (SMILES) | normalised response (DU-4475 [1]) | normalised response (Hs578T [2]) | normalised response (MDA-MB-436 [3]) | normalised response (CAL-85-1 [4]) | normalised response (MDA-MB-468 [5]) | normalised response (HCC1937 [6]) | normalised response (HCC1143 [7]) | normalised response (CAL-148 [8]) | normalised response (DU-4475 [9]) | normalised response (Hs578T [10]) | normalised response (CAL-120) | normalised response (MDA-MB-436 [11]) | normalised response (HDQ-P1) | normalised response (HCC1599) | normalised response (BT-549) | normalised response (CAL-85-1 [12]) | normalised response (MDA-MB-468 [13]) | normalised response (CAL-51) | normalised response (MDA-MB-231) | normalised response (HCC1937 [14]) | normalised response (BT-474) | normalised response (HCC1143 [15]) | normalised response (MCF-10A) | normalised response (MDA-MB-453) | normalised response (CAL-148 [16]) | normalised response (MFM-223)
1 | COc1ccc(-c2cc3c(C)nc(N)nc3n([C@H]3CC[C@H](OCCO)CC3)c2=O)cn1 (10000 nM) | 0.26% | 5.22% | 37.1% | 4.45% | 4.65% | 8.02% | 7.29% | 4.36% | 67.2% | 28.7% | 75.8% | 100% | -2.73% | 92.1% | 0.06% | 52.1% | 59.9% | 17.6% | 4.33% | 41.4% | -9.27% | 91.1% | 72.4% | 61.1% | -9.66% | 52.8%
2 | O=C(Nc1c[nH]nc1-c1nc2ccc(CN3CCOCC3)cc2[nH]1)NC1CC1 [AT9283] (1000 nM) | 72.4% | 54.8% | 99.5% | 59.6% | 31.1% | 73.7% | 60.8% | 86.1% | 106% | 83.2% | 57.7% | 77.6% | 88.2% | 105% | 70.5% | 37.8% | 65.6% | 56% | 40.6% | 116% | 89.1% | 119% | 88.4% | 101% | 83.9% | 75%
3 | COc1cc(CCc2cc(NC(=O)c3ccc(N4CC(C)NC(C)C4)cc3)n[nH]2)cc(OC)c1 (stereo unspecified) [AZD4547] (1000 nM) | 94% | 87.6% | 98% | 105% | 104% | 95.8% | 96.5% | 93% | 98.5% | 115% | 89.5% | 95.4% |  | 100% | 90% | 126% | 190% | 96.6% | 110% | 88.6% | 99.9% | 59.4% | 63.9% | 103% | 57.8% | 95.5%
4 | CCC/C=C/C=C/C(=O)O[C@H]1/C(=C/C(=O)OC)C[C@H]2C[C@H]([C@@H](C)O)OC(=O)C[C@H](O)C[C@@H]3C[C@H](OC(C)=O)C(C)(C)[C@](O)(C[C@@H]4C/C(=C/C(=O)OC)C[C@H](/C=C/C(C)(C)[C@]1(O)O2)O4)O3 [Bryostatin 1] (100 nM) | 97.4% | 88.6% | 111% | 98.5% | 98.3% | 98.6% | 94.1% | 107% | 112% | 114% | 99.8% |  | 73.7% | 118% | 122% | 64.6% | 150% | 104% | 120% |  | 93.1% | 53.9% | 103% | 104% | 105% | 104%
5 | CO[C@@H](C(=O)N1Cc2[nH]nc(NC(=O)c3ccc(N4CCN(C)CC4)cc3)c2C1)c1ccccc1 [Danusertib] (10000 nM) | 37.3% | 46.1% | 57.5% | 67.8% | 50.1% | 85.3% | 47.1% | 94.9% | 102% | -40.1% | 28.7% | 75.7% | 48% | 106% | 53.1% | 67.3% | 55.9% | 22.9% | 93.2% |  | 91.6% | 127% | 57.6% | 112% | 90.5% | 94.9%
6 | Cc1nc(Nc2ncc(C(=O)Nc3c(C)cccc3Cl)s2)cc(N2CCN(CCO)CC2)n1 [Dasatinib] (1000 nM) | 95.5% | 31.9% | 91.9% | 35.8% | 73.1% | 55.2% | 60.3% | 103% | 96.6% | 5.15% | 100% | 97% | 81.3% | 102% | 39.7% | 43.1% | 99.7% | 75.6% | 35% | 91.4% | 103% | 107% | 63% | 92.5% | 104% | 
7 | Cc1c(CN2CCN(C(=O)[C@H](C)O)CC2)sc2c(N3CCOCC3)nc(-c3cnc(N)nc3)nc12 [GDC-0980] (10000 nM) | 15.7% | 20.3% | 43.1% | 18.2% | 17.8% | 29.5% | 20.7% | 10% | 85.5% | 98.8% | 104% | 98.5% | 41.6% | 96.9% | 95.2% | 58% | 119% | 18% | 98.1% | 101% | 53.5% | 47% | 88.3% | 86.7% | 49.1% | -39.7%
8 | Nc1cccc2c1CN(C1CCC(=O)NC1=O)C2=O (stereo unspecified) [Lenalidomide] (10000 nM) | 99.3% | 98.1% | 91.3% | 103% | 107% | 102% | 95.3% | 104% | 100% | 127% | 97.7% | 95.5% | 98.5% | 103% | 117% | 90.7% | 138% | 102% | 108% | 97.7% | 102% | 119% | 91.8% | 99.8% |  | 80.3%
9 | C[C@]12O[C@H](C[C@]1(O)CO)n1c3ccccc3c3c4c(c5c6ccccc6n2c5c31)CNC4=O [Lestaurtinib] (1000 nM) | 5.65% | 61.4% | 44.7% | 32.5% | 35.6% | 56% | 71.9% | 99.6% | 71.7% | 25.3% | 65.5% | 51.6% | 76.4% | 57.5% | 50% | 21.5% | 107% | 111% | 89.2% | 89.6% | 77.2% | 73.5% | 66% | 104% | 67% | 89.8%
10 | O=C1c2c(O)ccc(O)c2C(=O)c2c(NCCNCCO)ccc(NCCNCCO)c21 [Mitoxantrone] (1000 nM) | 49.5% | 89.4% | 40.4% | 73.9% | 59.4% | 87.4% | 73.9% | 40.4% | 94.2% | 112% | 107% | 78% | 98.8% | 112% | 108% | 104% | 217% | 60% | 119% | 117% | 95.7% | 119% | 112% | 112% | 52.5% | 88%
11 | Nc1ccccc1NC(=O)c1ccc(CNc2nccc(-c3cccnc3)n2)cc1 [Mocetinostat] (10000 nM) | 4.3% | 29% | 31.8% | 6.94% | 5.88% | 49.8% | 24.9% | 12.2% | 72.3% | 48.6% | 17.4% | -9.9% | -1.8% | 73.8% | 34.1% | -38.3% | -170% | 7.12% | -24.5% | 69.9% | 34.8% | 63.6% | 84% | 92.3% | 35.8% | 60.3%
12 | COc1nc(N)nc2c1ncn2[C@@H]1O[C@H](CO)[C@@H](O)[C@@H]1O [Nelarabine] (10000 nM) | 97.8% | 90.5% | 90.1% | 103% | 87.1% | 91.7% | 94.9% | 78.7% | 98.5% | 91.4% | 93.8% | 91% | 111% | 96.5% | 87.5% | 138% | 122% | 111% | 97.9% | 94.5% | 96% | 99.1% | 83.2% | 87% | 100% | 87.6%
13 | Cc1ccc(Nc2nccc(N(C)c3ccc4c(C)n(C)nc4c3)n2)cc1S(N)(=O)=O [Pazopanib] (10000 nM) | 104% | 88.5% | 106% | 103% | 83.3% | 102% | 97.2% | 106% | 104% | 77.2% | 94% | 96.9% | 111% | 100% | 119% | 78.9% | 162% | 76.9% | 99.7% | 85.7% | 99.5% | 55.8% | 94.8% | 102% | 100% | 96.1%
14 | O=C(CCBr)N1CCN(C(=O)CCBr)CC1 [Pipobroman] (10000 nM) | 101% | 103% | 95% | 98.2% | 100% | 98.2% | 103% | 101% | 96.9% | 128% | 91.5% | 101% | 104% | 97.4% | 98.9% | 77.6% | 134% | 101% | 83.1% | 105% | 100% |  | 88.8% | 96.5% | 96.9% | 
